The text below walks through data of patent US20220112204A1, “SUBSTITUTED DIHYDROPYRANOPYRIMIDINE COMPOUNDS AS KRAS INHIBITORS” (ACCUTAR BIOTECHNOLOGY INC., priority 2020, published 2022).

The target in assay [1] is T1, KRAS-G12C mutant (Homo sapiens, UniProt P01116, G12C). The assay is described as follows: TR-FRET assay of SOS1-assisted KRAS GDP/GTP exchange. Format: biochemical. As for the experimental part:
GDP form of 6*His tagged KRAS-G12C was diluted to 40 nM and incubated with 8 nM LanthaScreen™ Elite Terbium-anti-HIS Antibody (Thermo, catalog number PV5863) in reaction buffer containing 20 mM Tris, pH 7.5, 100 mM NaCl, 1 mM DTT, 0.1% Tween20, 0.05% BSA, 2% DMSO, 1 mM MgCl2. After 1 hour-incubation at 4° C., proteins were placed in 384 well plate (PerkinElmer, PROXIPLATE-384 PLUS). Then compounds with different concentrations were added to the proteins. BODIPY labeled GTP (Thermo, catalog number G12411) and SOS-1 (or reaction buffer as control) were then added to reactions at 200 nM and 1 μM to trigger the exchange of GDP to BODIPY-GTP. TR-FRET emission signals were determined at 520 nm and 620 nm on a Envision® Multilabel Plate Reader (PerkinElmer) using a 337 nm laser as light source. All data were analyzed and plotted using Graph Pad Prism software (version 8.0.1). Raw TR-FRET data were converted to percentage of inhibition (relative to DMSO) using the following equations: […]
b) For a given test compound concentration X:
Signal (X)=Emission ratio (SOS-1 & GTP)—Emission ratio (buffer & GTP)
c) Percentage of inhibition at concentration X=[1−Signal(X)/Signal (DMSO)]*100%
The […] values were determined by nonlinear regression of plots of [inhibitor] vs. percentage of inhibition with variable slope. Table 4 summarizes inhibition of SOS1-assisted GDP/GTP exchanging activity of KRAS-G12C mutant with exemplary compounds of the present disclosure.

In assay [2] the test system is phospho-ERK1/2 (Thr202/Tyr204) in MIA PaCa-2 cell line. The assay is described as follows: pERK and ERK Western blot analysis, MIA PaCa-2. The assay is classed as cell-based. The settings on record: Homo sapiens; MIA PaCa-2 cell line, 4 hours after incubation; read-out: 2D pERK IC50. The protocol: MIA PaCa-2 (ATCC), NCI-H358 (ATCC), NCI-H23 (ATCC), SW837 and A549 (ATCC) cells were plated in 24-well plates at 2×10^5cells/well in RPMI growth medium containing 10% FBS and 1× Penicillin Streptomycin. They were then incubated at 37° C. overnight. The following day, the test compound was administered to the cells by using 1000× compound stock solution prepared in DMSO at various concentrations. After administration of the compound, the cells were then incubated at 37° C. for 4 hours. Upon completion, the cells were washed with PBS and protein was collected in Laemmli sample buffer (1×; VWR International). Proteins in cell lysate were separated by SDS-PAGE and transferred to Odyssey nitrocellulose membranes (Licor) with iblot® dry blotting transfer system (ThermoFisher). Nonspecific binding was blocked by incubating membranes with Intercept Blocking Buffer (Licor) for 1 hour at room temperature with gentle shaking. The membranes were then incubated overnight at 4° C. with primary antibodies rabbit anti-phospho p44/42 MAPK (Erk1/2) (1:2,000, Cell Signaling, 4370) and mouse anti-p44/42 MAPK (Erk1/2) (1:1,000, Cell Signaling, 4696) diluted in Intercept Blocking Buffer containing 0.1% Tween 20. After washing 3 times with TBS-T, the membranes were incubated with IRDye® 800CW goat anti-rabbit IgG (1:20,000, Licor) or IRDye® 680CW goat anti-mouse IgG (1:20,000, Licor) for 1 hour. After TBS-T washes, membranes were rinsed in TBS and scanned on Odyssey® CLx Imaging System (Licor). The bands were quantified using Image Studio™ Software (Licor).
In general terms: A western blot detects proteins with antibodies after separation by electrophoresis.

Assay [3] addresses T1, KRAS-G12C mutant. The assay is described as follows: Gel shift assay (SDS-PAGE) for covalent modification of KRAS G12C. The assay is classed as binding. The settings on record: 0.5 μM compound, 1 μM GDP-bound KRAS G12C, 25° C., 5 minutes, shift indicative of covalent cysteine conjugation. As for the experimental part:
0.5 μM compounds were incubated with 1 μM GDP-bound untagged KRAS (G12C or wild type) proteins at 25° C. for 5 minutes in 40 μl reaction buffer (50 mM Tris, pH 7.5, 100 mM NaCl, 1 mM MgCl2, 1 mM DTT). The reactions were quenched with 10 μI SDS-PAGE sample loading buffer (250 mM Tris-HCl, pH 6.8, 10% SDS, 0.5% bromophenol blue, 50% glycerol and 50 mM DTT) and then analyzed via SDS-PAGE using 4%-20% gradient polyacrylamide gel followed by Coomassie blue stain.
FIG. 1 illustrates mobility change of KRAS-G12C mutant or wild type proteins on SDS-PAGE after 5 minutes of coincubation at 25° C. with exemplary compounds of the present disclosure, indicative of covalent cysteine conjugation.
Table 3 summarizes molecular weight shift of KRAS-G12C mutant on SDS-PAGE after 5 mins of coincubation at 25° C. with exemplary compounds of the present disclosure, indicative of covalent cysteine conjugation.

The IC50 is the concentration that inhibits the measured activity by half. For the compound `C=CC(=O)N1CCN(c2nc(OC[C@@H]3CCCN3C)nc3c2CO[C@@H](c2cccc4ccccc24)C3)C[C@@H]1CC#N` [Compound 5, 2-((S)-1-acryloyl-4-((R)-2-(((S)-1-methylpyrrolidin-2-yl)methoxy)-7-(naphthalen-1-yl)-7,8-dihydro-5H-pyrano[4,3-d]pyrimidin-4-yl)piperazin-2-yl)acetonitrile], the figures for the IC50 in assay [1] and in assay [2] were 2150 nM and over 100 nM, respectively.

Take `C=C(F)C(=O)N1CCN(c2nc(OCC34CCCN3CCC4)nc3c2COC(c2cccc4c2CCCC4)C3)C[C@@H]1CC#N` (stereo partly drawn) [Compound 67, 2-((2S)-1-(2-fluoroacryloyl)-4-(2-((tetrahydro-1H-pyrrolizin-7a(5H)-yl)methoxy)-7-(5,6,7,8-tetrahydronaphthalen-1-yl)-7,8-dihydro-5H-pyrano[4,3-d]pyrimidin-4-yl)piperazin-2-yl)acetonitrile]: the IC50 in assay [1] was 36 nM; in assay [2] it was 10 to 100 nM. Also, in assay [3], the “KRAS-G12C molecular weight shift” value is listed as “Yes”.

For the compound `C=CC(=O)N1CCN(c2nc(OC[C@@H]3CCCN3C)nc3c2CO[C@@H](c2cccc4cccc(Cl)c24)C3)C[C@@H]1CC#N` [Compound 6, 2-((S)-1-acryloyl-4-((R)-7-(8-chloronaphthalen-1-yl)-2-(((S)-1-methylpyrrolidin-2-yl)methoxy)-7,8-dihydro-5H-pyrano[4,3-d]pyrimidin-4-yl)piperazin-2-yl)acetonitrile], the results for the IC50 in assay [1] and in assay [2] were 7130 nM and over 100 nM, respectively.

For the compound `C=CC(=O)N1CCN(c2nc(OC[C@@H]3C[C@H](F)CN3C)nc3c2CO[C@@H](c2cccc4ccccc24)C3)C[C@@H]1CC#N` [Compound 10, 2-((S)-1-acryloyl-4-((R)-2-(((2S,4S)-4-fluoro-1-methylpyrrolidin-2-yl)methoxy)-7-(naphthalen-1-yl)-7,8-dihydro-5H-pyrano[4,3-d]pyrimidin-4-yl)piperazin-2-yl)acetonitrile], the IC50 in assay [1] is 13900 nM; in assay [2], over 100 nM.

Consider `C=C(F)C(=O)N1CCN(c2nc(OC[C@@H]3CCCN3C)nc3c2COC(c2cccc4ccccc24)C3)C[C@@H]1CC#N` (stereo partly drawn) [Compound 1, 2-((2S)-1-(2-fluoroacryloyl)-4-(2-(((S)-1-methylpyrrolidin-2-yl)methoxy)-7-(naphthalen-1-yl)-7,8-dihydro-5H-pyrano[4,3-d]pyrimidin-4-yl)piperazin-2-yl)acetonitrile], for which the 50% inhibitory concentration (IC50) in assay [1] was 698 nM; in assay [2], over 100 nM.

As for `C=C(F)C(=O)N1CCN(c2nc(OCC34CCCN3CCC4)nc3c2CO[C@@H](c2cccc4c2CCCC4)C3)C[C@@H]1CC#N` [Compound 68, 2-((S)-1-(2-fluoroacryloyl)-4-((R)-2-((tetrahydro-1H-pyrrolizin-7a(5H)-yl)methoxy)-7-(5,6,7,8-tetrahydronaphthalen-1-yl)-7,8-dihydro-5H-pyrano[4,3-d]pyrimidin-4-yl)piperazin-2-yl)acetonitrile], the IC50 in assay [1] was 2540 nM; in assay [2], over 100 nM. Besides, in assay [3], the “KRAS-G12C molecular weight shift” value was “No”.

As for `C=C(F)C(=O)N1CCN(c2nc(OCC34CCCN3CCC4)nc3c2[C@@H](C)O[C@@H](c2cccc4c2CCCC4)C3)C[C@@H]1CC#N` [Compound 60, 2-((S)-1-(2-fluoroacryloyl)-4-((5R,7R)-5-methyl-2-((tetrahydro-1H-pyrrolizin-7a(5H)-yl)methoxy)-7-(5,6,7,8-tetrahydronaphthalen-1-yl)-7,8-dihydro-5H-pyrano[4,3-d]pyrimidin-4-yl)piperazin-2-yl)acetonitrile], the IC50 was 4200 nM in assay [1] and over 100 nM in assay [2]. In assay [3], the “KRAS-G12C molecular weight shift” value is “No”.

As to `C=CC(=O)N1CCN(c2nc(OC[C@@H]3CCCN3C)nc3c2COC(c2cccc4cccc(Cl)c24)C3)C[C@@H]1CC#N` (stereo partly drawn) [Compound 3, 2-((2S)-1-acryloyl-4-(7-(8-chloronaphthalen-1-yl)-2-(((S)-1-methylpyrrolidin-2-yl)methoxy)-7,8-dihydro-5H-pyrano[4,3-d]pyrimidin-4-yl)piperazin-2-yl)acetonitrile], the IC50 is 29 nM in assay [1] and 1 to 10 nM in assay [2].
